Experimental data as given in ChEMBL document CHEMBL3351251, “3-Arylcoumarins: synthesis and potent anti-inflammatory activity” (Bioorg Med Chem Lett, 2014).

Columns and labels:
[1] = Cytotoxicity against LPS-stimulated mouse RAW264.7 cells assessed as cell viability at 5 mg/L incubated for 24 hrs by alamar blue assay; type: cell-based; conditions: LPS-stimulated RAW264.7 cells, read-out: Activity
RAW264.7 [2] = assay: Anti-inflammatory activity in mouse RAW264.7 cells assessed as inhibition of LPS-induced nitric oxide production at 5 mg/L pre-incubated for 2 hrs before LPS stimulation for 24 hrs; type: functional
RAW264.7 [3] = assay: Anti-inflammatory activity in mouse RAW264.7 cells assessed as inhibition of LPS-induced nitric oxide production pre-incubated for 2 hrs before LPS stimulation for 24 hrs; type: functional, cell-based

SMILES | viability at 24 h, 5 mg/L [1] [%] | inhibition at 5 µg/mL (RAW264.7 [2]) [%] | IC50 (RAW264.7 [3]) [µM]
COc1ccc(-c2cc3ccccc3oc2=O)cc1OC | 47 | 47.4 | 
COc1ccc(-c2cc3cccc(OC)c3oc2=O)cc1 | 81.3 | 44.6 | 
COc1cccc2cc(-c3ccccc3)c(=O)oc12 | 64.5 | 78.4 | 
COc1ccc(-c2cc3ccccc3oc2=O)cc1 | 93.4 | 59.6 | 
COc1cc(Br)cc2cc(-c3ccccc3)c(=O)oc12 | 29.6 | 111 | 
COc1ccc(-c2cc3cc(Br)cc(OC)c3oc2=O)cc1 | 99.9 | 44.2 | 
COc1ccc(-c2cc3cc(Cl)cc(Cl)c3oc2=O)cc1OC | 118 | 27.3 | 
COc1ccc(-c2cc3cc(Cl)ccc3oc2=O)cc1 | 102 | 47.5 | 
COc1ccc(-c2cc3cccc(OC)c3oc2=O)cc1OC | 87.7 | 32.3 | 
COc1cccc(-c2cc3cccc(OC)c3oc2=O)c1 | 34.2 | 91.4 | 
COc1cc(-c2cc3cccc(OC)c3oc2=O)cc(OC)c1OC | 54.4 | 52 | 
COc1cccc2cc(-c3ccc(Cl)cc3)c(=O)oc12 | 93.5 | 61.7 | 
COc1cccc2cc(-c3ccc(F)cc3)c(=O)oc12 | 127 | 47.6 | 
COc1ccc(-c2cc3cc(Cl)ccc3oc2=O)cc1OC | 105 | 31.2 | 
COc1ccccc1-c1cc2cc(Cl)ccc2oc1=O | 115 | 65.7 | 
COc1cc(-c2cc3cc(Cl)ccc3oc2=O)cc(OC)c1OC | 78.4 | 57.6 | 
O=c1oc2ccc(Cl)cc2cc1-c1ccc(Cl)cc1 | 114 | 12.1 | 
COc1ccc(-c2cc3cc(Cl)cc(Cl)c3oc2=O)cc1 | 99.3 | 20.8 | 

SMILES | viability at 24 h, 5 mg/L [1] [%] | inhibition at 5 µg/mL (RAW264.7 [2]) [%] | IC50 (RAW264.7 [3]) [µM]
COc1cccc(-c2cc3cc(Cl)cc(Cl)c3oc2=O)c1 | 105 | 36 | 
COc1ccccc1-c1cc2cc(Cl)cc(Cl)c2oc1=O | 119 | 76.9 | 8.5
O=c1oc2c(Cl)cc(Cl)cc2cc1-c1ccccc1 | 104 | 53.4 | 
COc1cccc(-c2cc3ccccc3oc2=O)c1 | 48.4 | 49.2 | 
O=c1oc2ccccc2cc1-c1ccc(F)cc1 | 110 | 9.98 | 
COc1ccc(-c2cc3cc(Br)cc(OC)c3oc2=O)cc1OC | 98 | 53.5 | 
COc1cccc(-c2cc3cc(Br)cc(OC)c3oc2=O)c1 | 116 | 72.3 | 6.9
COc1ccccc1-c1cc2cc(Br)cc(OC)c2oc1=O | 95.7 | 47.6 | 
COc1cc(-c2cc3cc(Br)cc(OC)c3oc2=O)cc(OC)c1OC | 115 | 47.3 | 
COc1cc(Br)cc2cc(-c3ccc(F)cc3)c(=O)oc12 | 103 | 33.9 | 
COc1cc(Br)cc2cc(-c3cccc(OC(C)=O)c3)c(=O)oc12 | 66.5 | 84.1 | 
COc1cc(Br)cc2cc(-c3cccc(O)c3)c(=O)oc12 | 28.5 | 116 | 
COc1cc(Br)cc2cc(-c3ccc(OC(C)=O)cc3)c(=O)oc12 | 61.7 | 77.8 | 
COc1cc(Br)cc2cc(-c3ccc(O)cc3)c(=O)oc12 | 24.4 | 91.3 | 
COc1ccc(OC)c(-c2cc3cc(Br)cc(OC)c3oc2=O)c1 | 93.5 | 45.9 | 
COc1cc(Br)cc2cc(-c3cccnc3)c(=O)oc12 | 84.9 | 58.6 | 
O=c1oc2ccccc2cc1-c1ccccc1 | 104 | 69.5 | 
COc1cc(/C=C/C(=O)CC(=O)/C=C/c2ccc(O)c(OC)c2)ccc1O [CURCUMIN] |  | 77 | 6.2
